US20240238232A1, “COMPOSITIONS AND METHODS FOR THE REDUCTION OR TREATMENT OF INSULIN RESISTANCE AND METABOLIC CONDITIONS” (AXCELLA HEALTH INC., priority 2018, published 2024)
Where “and” joins values, the source holds several entries; their conditions need not be identical. Equal entries are not always repeated. Structures can show the parent of a compound that is named as a salt. Marks after values point to notes of the source that are not given here.

Experiments:
[1] = tested on: B6.Cg-Lep^ob/J (ob/ob) mouse model; assay: Oral glucose tolerance test (OGTT) in ob/ob mice, Example 1; format: in vivo; conditions: for Blood glucose levels raw data: individual ob/ob mice, OGTT, metformin 450 mg/kg, hydrochloride; for Mean blood glucose level: ob/ob mice OGTT Day 3, metformin hydrochloride 450 mg/kg QD PO
Experimental: Amino Acid Composition A-1 and metformin were tested for their ability to affect glucose tolerance in a genetically obese B6.Cg-Lep^ob/J (ob/ob) mouse model (Maida A, et al., 2010, PMID: 20972533).
Eight-week-old male ob/ob mice were subjected to treatment of test articles (Amino Acid Composition A-1 and metformin) followed by oral glucose tolerance test (OGTT) on Day 3. Mice were randomized by body weight and unfasted blood glucose on Day −1. Body weight was recorded daily in the morning before AM dosing on Day 1, Day 2, and Day 3. Test articles were dosed by oral gavage at 10 ml/kg. Dosage of a test article was calculated based on daily body weight. Treatment schedule and dose are listed in the following section (Table 34). AM doses were administered at 0700, and PM doses were administered at 1800. Oral glucose tolerance test (OGTT) was performed after 6-hour fasting on Day 3.
Mice were fasted for 6 hours prior to OGTT test. Food was removed at 0700 hours on Day 3; water was provided during fasting. Blood samples were collected from tail snip or facial puncture at −30 min (relative to OGTT) into K2EDTA tubes for baseline glucose and blood biochemistry (insulin, triglyceride, and cholesterol). Blood glucose was measured by a glucometer (SDI StatStrip Xpress or equivalent). Plasma was collected in K2EDTA and saved at −80° C.
Mice were bled for baseline glucose and plasma at −30 min. Test articles were then dosed by oral gavage at −30 min. Glucose was administered per os (P.O.) at a dosage of 2.0 g/kg body weight. Blood glucose levels were measured at 0 min immediately prior to glucose injection and then at 15, 30, 60, 120 and 240 minutes thereafter (shown as 0.25, 0.5, 1, 2, and 4 hours in Table 35 below).
Data are mean±standard deviation (stdev). (p values by Dunnett's multiple comparisons: **p<0.005 compared to vehicle control; ***p<0.001 compared to vehicle control; ****p<0.0005 compared to vehicle control.)

[2] = tested on: B6.Cg-Lep^ob/J (ob/ob) mouse model; assay: as above; format: in vivo; conditions: timepoint −1 hours
[3] = tested on: ob/ob mice; C57/BL6; conditions: cited from earlier work

In the case of CN(C)C(=N)N=C(N)N [Metformin, Metformin hydrochloride], the “Blood glucose levels raw data” value ([1]; timepoint 0 hours) is reported as 274 mg/dL and 234 mg/dL and 220 mg/dL and 129 mg/dL and 140 mg/dL, the “Blood glucose levels raw data” value ([1]; timepoint 0.25 hours) is reported as 387 mg/dL and 397 mg/dL and 427 mg/dL and 310 mg/dL and 247 mg/dL and the “Blood glucose levels raw data” value ([1]; timepoint 0.5 hours) is reported as 462 mg/dL and 439 mg/dL and 482 mg/dL and 307 mg/dL and 261 mg/dL. The “Blood glucose levels raw data” value ([1]; timepoint 1 hours) was 365 mg/dL and 399 mg/dL and 431 mg/dL and 239 mg/dL and 154 mg/dL, the “Blood glucose levels raw data” value ([1]; timepoint 2 hours) was 154 mg/dL and 183 mg/dL and 219 mg/dL and 124 mg/dL and 111 mg/dL and the “Blood glucose levels raw data” value ([1]; timepoint 4 hours) was 118 mg/dL and 93 mg/dL and 155 mg/dL and 101 mg/dL and 80 mg/dL. The “Mean blood glucose level” value ([1]; timepoint 0 hours) was 199.4 mg/dL, the “Mean blood glucose level” value ([1]; timepoint 0.25 hours) was 353.6**** mg/dl and the “Mean blood glucose level” value ([1]; timepoint 0.5 hours) was 390.2*** mg/dl. For the same compound, the “Mean blood glucose level” value ([1]; timepoint 1 hours) was 317.6 mg/dL, the “Mean blood glucose level” value ([1]; timepoint 2 hours) was 158.2 mg/dL and the “Mean blood glucose level” value ([1]; timepoint 4 hours) was 109.4 mg/dL. The “Blood glucose levels raw data” value ([2]; individual ob/ob mice, OGTT, metformin 450 mg/kg, hydrochloride) was 265 mg/dL and 248 mg/dL and 183 mg/dL and 120 mg/dL and 166 mg/dL, the “Mean blood glucose level” value ([2]; ob/ob mice OGTT Day 3, metformin hydrochloride 450 mg/kg QD PO) was 196.4 mg/dL and the “Glucose tolerance (OGTT)” value ([3]; C57/BL6, single dose) was “improves glucose tolerance”. The Plasma glucose ([3]; ob/ob mice (Cool B, et al., 2006)) was “lowers plasma glucose” and the NAFLD ([3]; ob/ob mice (Lin H Z et al., 2000; Cool B, et al., 2006)) was “reverses NAFLD”.
